Results reported in US11795177B2, “Substituted quinoline analogs as aldehyde dehydrogenase 1A1 (ALDH1A1) inhibitors” (THE UNITED STATES OF AMERICA, AS REPRESENTED BY THE …, priority 2017, dated 2023).
pIC50: −log10 of the molar value. Structures can show the parent of a compound that is named as a salt.

Experiments:
MIA PaCa-2 cells = experiment: MIA PaCa2 cell-based assay (1,536-well high-content imaging ALDEFLUOR assay); design: species or system human; settings: Homo sapiens, 0.5 h, ALDEFLUOR BAAA substrate 500 nM, 30 minutes
Outline: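 High-content ALDEFLUOR imaging readout: BAA-retaining cells in FITC channel scored against Hoechst-counted nuclei. Before imaging, MIA PaCa-2 cells seeded at 1,000 per well received final 500 nM BAAA and 0.5 nM Hoechst with compounds in 16-point series (1.4 nM to 47.8 μM), 30 min, 37° C.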

ALDH1A1 enzyme = target: T1, ALDH1A1 enzyme (Homo sapiens, UniProt P00352); experiment: ALDH1A1 enzymatic assay (in vitro); type: biochemical; settings: ALDH1A1 enzyme 20 nM, NAD+ 1 mM, propionaldehyde 80 μM; read-out: ALDH1A1 IC50
T1 sequence (P00352 1-501): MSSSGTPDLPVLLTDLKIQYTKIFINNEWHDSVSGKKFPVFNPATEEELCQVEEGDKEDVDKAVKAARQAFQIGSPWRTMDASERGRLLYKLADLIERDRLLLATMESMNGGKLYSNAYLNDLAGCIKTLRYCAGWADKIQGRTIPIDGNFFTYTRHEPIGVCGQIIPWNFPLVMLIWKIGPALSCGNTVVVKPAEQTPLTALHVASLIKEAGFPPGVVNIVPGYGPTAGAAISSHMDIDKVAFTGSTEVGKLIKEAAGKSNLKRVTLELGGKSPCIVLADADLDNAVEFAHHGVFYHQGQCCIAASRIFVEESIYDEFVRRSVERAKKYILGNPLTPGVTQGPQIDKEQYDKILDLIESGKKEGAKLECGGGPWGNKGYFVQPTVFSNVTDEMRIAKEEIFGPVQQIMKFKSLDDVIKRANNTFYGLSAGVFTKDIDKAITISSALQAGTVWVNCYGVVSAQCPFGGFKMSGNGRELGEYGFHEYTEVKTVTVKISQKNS
Outline: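 ALDH1A1 (20 nM final) in 100 mM HEPES pH 7.5, 0.01% Tween 20 was preincubated 15 min at RT with compound (968 pM–57.2 μM final), then started with 1 mM NAD+ and 80 μM propionaldehyde. NADH fluorescence (ex 340/em 450 nm) followed kinetically for 10 min; change normalized to no-inhibitor and no-enzyme controls for percent inhibition and curve fitting.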

| pIC50 (MIA PaCa-2 cells) | pIC50 (ALDH1A1 enzyme) | Structure (SMILES) |
| --- | --- | --- |
| 5.00 to 6.00 | > 6.30 | N#CC1(c2ccc(-c3c(C(=O)N4CCC(O)(CO)CC4)cnc4ccc(F)cc34)cc2)CC1 [Cpd. 354, 1-(4-(6-fluoro-3-(4-hydroxy-4-(hydroxymethyl)piperidine-1-carbonyl)quinolin-4-yl)phenyl)cyclopropane-1-carbonitrile] |
| 5.00 to 6.00 | > 6.30 | N#CC1(c2ccccc2)CCN(c2c(C(=O)N3CC(O)C3)cnc3ccc(F)cc23)CC1 [Cpd. 326, 1-(6-fluoro-3-(3-hydroxyazetidine-1-carbonyl)quinolin-4-yl)-4-phenylpiperidine-4-carbonitrile] |
| > 6.30 | > 6.30 | N#CC1(c2ccccc2)CCN(c2c(C(=O)N3CC4(C3)CS(=O)(=O)C4)cnc3ccc(F)cc23)CC1 [Cpd. 328, 1-(3-(2,2-dioxido-2-thia-6-azaspiro[3.3]heptane-6-carbonyl)-6-fluoroquinolin-4-yl)-4-phenylpiperidine-4-carbonitrile] |
| < 5.00 | > 6.30 | CCNC(=O)N1CCN(C(=O)c2cnc3ccc(F)cc3c2N2CCC(C)(C#N)CC2)CC1 [Example 89, 4-(4-(4-cyano-4-methylpiperidin-1-yl)-6-fluoroquinoline-3-carbonyl)-N-ethylpiperazine-1-carboxamide] |
| > 6.30 | > 6.30 | CC(=O)C1(c2ccccc2)CCN(c2c(C(=O)N3CCN(C(=O)N(C)C)CC3)cnc3ccc(F)cc23)CC1 [Example 271, 4-(4-(4-acetyl-4-phenylpiperidin-1-yl)-6-fluoroquinoline-3-carbonyl)-N,N-dimethylpiperazine-1-carboxamide] |
| > 6.30 | > 6.30 | CS(=O)(=O)N1CCN(C(=O)c2cnc3ccc(F)cc3c2N2CCC(C#N)(c3cccs3)CC2)CC1 [Cpd. 356, 1-(6-fluoro-3-(4-(methylsulfonyl)piperazine-1-carbonyl)quinolin-4-yl)-4-(thiophen-2-yl)piperidine-4-carbonitrile] |
| > 6.30 | > 6.30 | CS(=O)(=O)N1CCN(C(=O)c2cnc3ccc(F)cc3c2N2CCC(C#N)(CC3CC3)CC2)CC1 [Example 243, 4-(cyclopropylmethyl)-1-(6-fluoro-3-(4-(methylsulfonyl)piperazine-1-carbonyl)quinolin-4-yl)piperidine-4-carbonitrile] |
| 5.00 to 6.00 | > 6.30 | N#CC1(O)CCN(C(=O)c2cnc3ccc(F)cc3c2-c2ccc(C3(C#N)CC3)cc2)CC1 [Cpd. 340, 1-(4-(4-(1-cyanocyclopropyl)phenyl)-6-fluoroquinoline-3-carbonyl)-4-hydroxypiperidine-4-carbonitrile] |
| > 6.30 | > 6.30 | N#CC1(c2ccccc2)CCN(c2c(C(=O)N3CCC(O)(CO)CC3)cnc3ccc(F)cc23)CC1 [Cpd. 351, 1-(6-fluoro-3-(4-hydroxy-4-(hydroxymethyl)piperidine-1-carbonyl)quinolin-4-yl)-4-phenylpiperidine-4-carbonitrile] |

More lines, now with the values behind:

| Structure (SMILES) | pIC50 (MIA PaCa-2 cells) | pIC50 (ALDH1A1 enzyme) |
| --- | --- | --- |
| CC(C)C(=O)N1CCN(C(=O)c2cnc3ccccc3c2N2CCC(C)(C#N)CC2)CC1 [Example 95, 1-(3-(4-isobutyrylpiperazine-1-carbonyl)quinolin-4-yl)-4-methylpiperidine-4-carbonitrile] | < 5.00 | > 6.30 |
| CCS(=O)(=O)N1CCN(C(=O)c2cnc3ccc(F)cc3c2N2CCC3(CC2)OCCO3)CC1 [Example 151, (4-(ethylsulfonyl)piperazin-1-yl)(6-fluoro-4-(1,4-dioxa-8-azaspiro[4.5]decan-8-yl)quinolin-3-yl)methanone] | 5.00 to 6.00 | > 6.30 |
| CC(C)(C#N)c1ccc(-c2c(C(=O)N3CCC(S(C)(=O)=O)CC3)cnc3ccc(F)cc23)cc1 [Example 259, 2-(4-(6-fluoro-3-(4-(methylsulfonyl)piperidine-1-carbonyl)quinolin-4-yl)phenyl)-2-methylpropanenitrile] | > 6.30 | > 6.30 |
| COc1ccc2ncc(C(=O)N3CCN(C(=O)C(C)C)CC3)c(N3CCC4(CC3)OCCO4)c2c1 [Example 5, 1-(4-(6-methoxy-4-(1,4-dioxa-8-azaspiro[4.5]decan-8-yl)quinoline-3-carbonyl)piperazin-1-yl)-2-methylpropan-1-one, TFA] | < 5.00 | > 6.30 |
| CCNC(=O)N1CCN(C(=O)c2cnc3c(F)c(OC)c(F)cc3c2N2CCC3(CC2)OCCO3)CC1 [Example 143, 4-(6,8-difluoro-7-methoxy-4-(1,4-dioxa-8-azaspiro[4.5]decan-8-yl)quinoline-3-carbonyl)-N-ethylpiperazine-1-carboxamide] | 5.00 to 6.00 | > 6.30 |
| O=C(c1cnc2ccc(F)cc2c1N1CCC2(CCCC2=O)CC1)N1CCN(C(=O)C2CC2)CC1 [Example 250, 8-(3-(4-(cyclopropanecarbonyl)piperazine-1-carbonyl)-6-fluoroquinolin-4-yl)-8-azaspiro[4.5]decan-1-one] | 5.00 to 6.00 | > 6.30 |
| CC1(C#N)CCN(c2c(C(=O)N3CCN(S(C)(=O)=O)CC3)cnc3ccc(Cl)cc23)CC1 [Example 119, 1-(6-chloro-3-(4-(methylsulfonyl)piperazine-1-carbonyl)quinolin-4-yl)-4-methylpiperidine-4-carbonitrile] | 5.00 to 6.00 | > 6.30 |
| CC1(C#N)CCN(c2c(C(=O)N3CCN(S(=O)(=O)N4CCCC4)CC3)cnc3ccc(F)cc23)CC1 [Example 158, 1-(6-fluoro-3-(4-(pyrrolidin-1-ylsulfonyl)piperazine-1-carbonyl)quinolin-4-yl)-4-methylpiperidine-4-carbonitrile] | < 5.00 | 5.00 to 6.00 |
| CN(C)S(=O)(=O)N1CCN(C(=O)c2cnc3c(F)cc(F)cc3c2N2CCC(C)(C#N)CC2)CC1 [Example 167, 4-(4-(4-cyano-4-methylpiperidin-1-yl)-6,8-difluoroquinoline-3-carbonyl)-N,N-dimethylpiperazine-1-sulfonamide] | > 6.30 | > 6.30 |
| CCNC(=O)N1CCN(C(=O)c2cnc3c(F)c(F)c(F)cc3c2N2CCC3(CC2)OCCO3)CC1 [Example 144, N-ethyl-4-(6,7,8-trifluoro-4-(1,4-dioxa-8-azaspiro[4.5]decan-8-yl)quinoline-3-carbonyl)piperazine-1-carboxamide] | 5.00 to 6.00 | > 6.30 |
| CCN(CC)C(=O)N1CCN(C(=O)c2cnc3cc(F)c(F)cc3c2N2CCC3(CC2)OCCO3)CC1 [Example 169, 4-(6,7-difluoro-4-(1,4-dioxa-8-azasprio[4.5]decan-8-yl)quinoline-3-carbonyl)-N,N-diethylpiperazine-1-carboxamide] | 5.00 to 6.00 | > 6.30 |
| CS(=O)(=O)C1CCN(C(=O)c2cnc3cc(F)c(F)cc3c2N2CCC3(CC2)OCCO3)CC1 [Example 187, (6,7-difluoro-4-(1,4-dioxa-8-azaspiro[4.5]decan-8-yl)quinolin-3-yl)(4-(methylsulfonyl)piperidin-1-yl)methanone] | 5.00 to 6.00 | > 6.30 |
| COc1ccc2ncc(C(=O)N3CCN(c4cccnc4)CC3)c(N3CCC4(CC3)OCCO4)c2c1 [Example 14, (6-methoxy-4-(1,4-dioxa-8-azaspiro[4.5]decan-8-yl)quinolin-3-yl)(4-(pyridin-3-yl)piperazin-1-yl)methanone, TFA] | < 5.00 | > 6.30 |
